Measured values reported in article PMC8072597, “Chromeno[3,4-b]xanthones as First-in-Class AChE and Aβ Aggregation Dual-Inhibitors” (International Journal of Molecular Sciences, 2021).
Read-outs that look alike come from different tables or passages of the source.

How the values were obtained:
[1] = target: AChE (Electrophorus electricus—eeAChE) (Electrophorus electricus, UniProt O42275); assay: biochemical; type: biochemical
Description: The synthesized compounds were evaluated for their inhibitory activity against AChE (Electrophorus electricus—eeAChE), using an adaptation of Ellman’s method. […] Initially, we performed a screening assay for the synthesized compounds to determine their enzyme inhibition at 20 μΜ as a threshold maximum concentration. […]
The inhibitory activity of the synthesized compounds towards AChE was evaluated spectrophotometrically by a 96-well microplate modified Ellman’s method. The enzyme (AChE) from Electrophorus electricus (eeAChE) stock solution was prepared as 7.4 U/mL in phosphate buffer, at pH 7. The stock solutions for the target compounds (0.1 M) were prepared in DMSO. The assay solution consisted of 0.0005 M 5,5′-dithiobis(2-nitrobenzoic acid) (DTNB), 0.013 U/mL eeAChE, and 0.0025 M acetylthiocholine iodide ATC (substrate for AChE) in 0.1 M phosphate buffer, at pH 7. The reaction mixture was prepared with 100 μL of the enzyme (eeAChE) and 50 μL of the test compound (or DMSO/water, not exceeding 0.2% of DMSO in the wells; i.e., blank samples). After 5 min of the pre-incubation period at 37 °C, 50 μL of acetylthiocholine iodide ATC and 50 μL of 5,5′-dithiobis(2-nitrobenzoic acid) (DTNB) were added to each well, thus initiating the enzymatic reaction. […] All compounds were tested at a screening concentration of 20 μM. The enzyme inhibition was calculated using the […] formula, where S and B are the enzyme activities with and without the test compound, respectively. […] All the reactions were performed in triplicate.

[2] = target: T1, HFIP-treated Aβ1-42 peptides (Homo sapiens, UniProt P05067); assay: Aβ aggregation inhibition, thioflavin T (ThT)-based fluorimetric assay; type: biochemical; conditions: 20 μM compound; for inhibition at 20 µM: read-out: Aβ1-42 Aggregation (% Inhib. at 20 μM)
T1 construct: (HFIP)-treated Aβ1-42 peptides
Excerpt: The formation of amyloid aggregates is crucial for the path mechanism of AD. Therefore, we also decided to check the inhibitory activity of the synthesized compounds against the Aβ aggregation. To do so, we conducted a thioflavin T (ThT)-based fluorimetric assay to evaluate their ability to inhibit β-amyloid aggregation in vitro, using 1,1,1,3,3,3,-hexafluoro-2-propanol (HFIP)-treated Aβ1-42 peptides. This assay is based on the interaction between benzothiazole dye (ThT) and cross β-sheet quaternary structure of the amyloid protein. The intensity of fluorescence is weak when the dye is free and increases when the dye binds to β-sheet structures. Cumulative evidence has been shown that aromatic/hydrophobic areas and hydrogen bonding components (such as hydroxy or methoxy groups) along flat extended structures in small-molecule inhibitors as in chromeno[3,4-b]xanthones 4a-i, are important structural features for Aβ aggregation inhibitors. […] The ThT fluorescence data was recorded over 24 h and the obtained results were then plotted against time, as illustrated in Figure 5. Phenol red was used as the reference inhibitor for in vitro Aβ aggregation.
The inhibition of Aβ1-42 aggregation was determined through a ThT-based fluorimetric assay. Initially, the Aβ-peptides (1 mg) were pre-treated with 1,1,1,3,3,3,-hexafluoro-2-propanol (HFIP), kept at room temperature overnight, aliquoted, and dried under vacuum. The Aβ-peptides stock solutions (111 μM) were then prepared in ammonium hydroxide 0.1% (NH4OH) prior to the fluorescence assay. The stock solutions of all tested compounds (400 μM) were prepared in DMSO, while the stock solution of ThT (400 μM) was prepared in distilled water (1 mL). The Aβ aggregation was monitored using a standard 96-well plates, in the Synergy multi-mode reader (BioTek) and setting the excitation and emission wavelengths at 440 and 485 nm, respectively. Samples were prepared by diluting the stock solutions in PBS pH 7.4 to a final Aβ peptides concentration of 10 μM, 20 μM of ThT and 20 μM of the test compound (maximum final DMSO content: 5% v/v), with a final volume of 100 μL. The assays were performed at room temperature. The fluorescence data was recorded over 24 h with 5 s shaking (360 cpm) prior to each reading and then plotted against the time, using a nonlinear regression. Phenol red was used as the reference compound. Each condition was performed in triplicate, and values were averaged. The estimation of the inhibitory potency (%) was carried out by comparing fluorescence values at the plateau.

[3] = Table 1, mean ± SEM, n = 3, each in triplicate, pH 7, 37 °C, read-out: eeAChE [IC50 (μM)]
[4] = Table 3 (dual-target summary), mean ± SEM, n = 3, read-out: eeAChE (IC50 [μM])
[5] = Table 2, 10 μM Aβ, fluorescence at plateau over 24 h, <10 = no inhibition observed

T1 sequence (P05067 672-713): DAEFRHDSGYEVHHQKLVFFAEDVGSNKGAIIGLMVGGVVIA
Sequence of AChE (Electrophorus electricus—eeAChE) (O42275 24-633): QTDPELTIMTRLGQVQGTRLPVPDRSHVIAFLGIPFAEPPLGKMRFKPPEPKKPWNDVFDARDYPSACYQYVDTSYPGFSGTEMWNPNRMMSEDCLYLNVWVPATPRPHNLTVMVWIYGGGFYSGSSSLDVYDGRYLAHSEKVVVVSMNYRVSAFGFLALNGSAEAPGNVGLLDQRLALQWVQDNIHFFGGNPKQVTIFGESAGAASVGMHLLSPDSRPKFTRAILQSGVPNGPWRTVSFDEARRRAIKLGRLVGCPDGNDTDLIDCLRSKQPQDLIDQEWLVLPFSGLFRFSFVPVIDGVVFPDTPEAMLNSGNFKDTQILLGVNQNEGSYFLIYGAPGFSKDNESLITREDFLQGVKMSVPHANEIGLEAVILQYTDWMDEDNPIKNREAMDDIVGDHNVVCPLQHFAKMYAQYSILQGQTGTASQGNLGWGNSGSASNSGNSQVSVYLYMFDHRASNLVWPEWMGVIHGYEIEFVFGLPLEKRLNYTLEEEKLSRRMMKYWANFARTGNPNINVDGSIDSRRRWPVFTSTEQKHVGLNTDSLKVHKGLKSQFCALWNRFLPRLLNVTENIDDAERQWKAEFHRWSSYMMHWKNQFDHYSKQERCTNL

Molecule | IC50 [1, 3] [µM] | inhibition at 20 µM [2, 5] [%] | other results
2,9-Dimethoxy-6H,8H-chromeno[3,4-b]xanthen-8-one [Compound 4g] | > 20 |  | 
2,11,12-trimethoxy-6H,8H-chromeno[3,4-b]xanthen-8-one [Compound 4h] | > 20 |  | 
2,11-Dimethoxy-6H,8H-chromeno[3,4-b]xanthen-8-one [Compound 4f] | 4.8 ± 0.1 |  | IC50 [1, 4]: 4.8 ± 0.1 µM; Aβ1-42 Aggregation (% Inhib. at 20 μM) [2, 5]: 52%; Aβ1-42 Aggregation (% Inhib. at 20 μM) ([2]; Table 3 (dual-target summary)): 52%
2-Methoxy-6H,8H-chromeno[3,4-b]xanthen-8-one [Compound 4e] | 6.9 ± 0.3 |  | IC50 [1, 4]: 6.9 ± 0.3 µM; Aβ1-42 Aggregation (% Inhib. at 20 μM) [2, 5]: 61%; Aβ1-42 Aggregation (% Inhib. at 20 μM) ([2]; Table 3 (dual-target summary)): 61%
C#CCOc1ccccc1/C=C/c1cc(=O)c2ccccc2o1 [Compound 3a, (E)-2-[2-(prop-2-yn-1-yloxy)styryl]-4H-chromen-4-one] |  | < 10 | IC50 [1]: 9.5 ± 0.3 µM
C#CCOc1ccccc1/C=C/c1cc(=O)c2ccc(OC)cc2o1 [Compound 3b, (E)-7-methoxy-2-[2-(prop-2-yn-1-yloxy)styryl]-4H-chromen-4-one] | > 20 | < 10 | 
C#CCOc1ccccc1/C=C/c1cc(=O)c2c(OC)cccc2o1 [Compound 3c, (E)-5-methoxy-2-[2-(prop-2-yn-1-yloxy)styryl]-4H-chromen-4-one] | > 20 |  | 
C#CCOc1ccccc1/C=C/c1cc(=O)c2ccc(OC)c(OC)c2o1 [Compound 3d, (E)-7,8-dimethoxy-2-[2-(prop-2-yn-1-yloxy)styryl]-4H-chromen-4-one] |  | < 10 | IC50 [1]: 2.4 ± 0.1 µM
C#CCOc1cc(OC)ccc1/C=C/c1cc(=O)c2ccccc2o1 [Compound 3e, (E)-2-[4-methoxy-2-(prop-2-yn-1-yloxy)styryl]-4H-chromen-4-one] | > 20 |  | 
C#CCOc1cc(OC)ccc1/C=C/c1cc(=O)c2ccc(OC)cc2o1 [Compound 3f, (E)-7-methoxy-2-[4-methoxy-2-(prop-2-yn-1-yloxy)styryl]-4H-chromen-4-one] | > 20 | 48 | 
C#CCOc1ccc(Br)cc1/C=C/c1cc(=O)c2ccccc2o1 [Compound 3i] | > 20 |  | 
O=c1c2ccccc2oc2cc3c(cc12)COc1ccccc1-3 [Compound 4a, 6H,8H-Chromeno[3,4-b]xanthen-8-one] |  | < 10 | IC50 [1]: 2.1 ± 0.2 µM
COc1ccc2c(=O)c3cc4c(cc3oc2c1)-c1ccccc1OC4 [Compound 4b] |  | 70 | IC50 [1, 4]: 3.9 ± 0.1 µM; inhibition at 20 µM ([2]; Table 3 (dual-target summary)): 66 to 70%
COc1cccc2oc3cc4c(cc3c(=O)c12)COc1ccccc1-4 [Compound 4c, 9-Methoxy-6H,8H-chromeno[3,4-b]xanthen-8-one] | > 20 |  | 
COc1ccc2c(=O)c3cc4c(cc3oc2c1OC)-c1ccccc1OC4 [Compound 4d, 11,12-Dimethoxy-6H,8H-chromeno[3,4-b]xanthen-8-one] | > 20 |  | 
O=c1c2ccccc2oc2cc3c(cc12)COc1ccc(Br)cc1-3 [Compound 4i, 2-bromo-6H,8H-chromeno[3,4-b]xanthen-8-one] | > 20 |  | 
N#CCOc1ccccc1/C=C/c1cc(=O)c2ccccc2o1 [Compound 6, (E)-2-{2-[2-(4-oxo-4H-chromen-2-yl)vinyl]phenoxy}acetonitrile] | > 20 |  | 
C#CCN(CC#C)c1ccccc1/C=C/c1cc(=O)c2ccccc2o1 [Compound 8, (E)-2-{2-[di(prop-2-yn-1-yl)amino]styryl}-4H-chromen-4-one] |  | 18 | IC50 [1, 4]: 8.7 ± 0.2 µM; inhibition at 20 µM ([2]; Table 3 (dual-target summary)): 18%
Cc1ccc(C#CCOc2ccccc2/C=C/c2cc(=O)c3ccccc3o2)cc1 [Compound 10, (E)-2-(2-{[3-(4-methylphenyl)prop-2-yn-1-yl]oxy}styryl)-4H-chromen-4-one] |  | 66 | IC50 [1, 4]: 2.9 ± 0.1 µM; inhibition at 20 µM ([2]; Table 3 (dual-target summary)): 66 to 70%
O=S1(=O)OC(c2ccc(O)cc2)(c2ccc(O)cc2)c2ccccc21 [Phenol Red, Phenol red, reference compound] |  | 20 | 
(E)-7,8-dimethoxy-2-[4-methoxy-2-(prop-2-yn-1-yloxy)styryl]chroman-4-one [Compound 3h] | > 20 |  | 
(E)-8-methoxy-3-[4-methoxy-2-(prop-2-yn-1-yloxy]styryl)naphthalen-1(4H)-one [Compound 3g] | > 20 |  | 
